This is an account of results in US9610233B2, “Hair thickening compositions and methods of use” (The Procter & Gamble Company, priority 2013, dated 2017).

The nature of data set [1]: Measurement of Average Thickness Increase of single hair fibers. Particulars: Sepigel 1.89%, Example 1 formula, fibers treated 10 minutes, dried overnight. The procedure: Measurement of Average Thickness Increase
• 1) Asian or Caucasian hair fibers (low-lift general population) are soaked in deionized water for 10 minutes, and allowed to equilibrate overnight in at Controlled Temperature and Humidity room (20 C, 50 RH). • 2) The single hair fibers are imaged with microscope and the diameter is measured using software for baseline measurement. • 3) The hair fibers are then treated with the hair care composition for 10 minutes to allow for saturation. The fibers are then removed and allowed to equilibrate and dry overnight. • 4) The next day, the fibers are imaged and measured for a final reading. For each experiment, untreated control and product treatment controls are ran, and at least 5 fibers are measured per treatment. • 5) In order to measure increase in thickness as a function of treatment, the […]. The average thickness increase is reported in the Table above, with measurements reported in micrometers. Viscosity Test Method

The nature of data set [2]: Viscosity Test Method (cone and plate viscometer/rheometer). The class given is physicochemical. The settings on record: Sepigel 1.89%. The text has this: The hair care composition may have a viscosity of from about 2,000 cps to about 20,000 cps, alternatively from about 10,000 cps to about 15,000 cps. The viscosity of the hair care composition may be determined by a cone and plate viscometer/rheometer which measures the viscous drag resulting from the sample material contained in the gap between a rotating cone and a stationary plate. The geometry of the cone and plate may be such that the entire sample is subjected to a uniform shear rate. A Brookfield Rheometer RS, with Cone C75-1, 26.7° C. temperature, 2.5 mL sample size, at 2 res/sec for 3 minutes may be used.

In the case of `Oc1cccc(O)c1` [Resorcinol, 1,3-Dihydroxybenzene], the “Average Thickness Increase” value in data set [1] (Resorcinol 0.5%) turned out to be 4.2 μm; in data set [1] (Resorcinol 1%) it was 3.9 μm; in data set [1] (Resorcinol 2%), 13.5 μm; in data set [1] (Resorcinol 5%), 10.7 μm; in data set [1] (Resorcinol 8%), 10.3 μm. Besides, the Viscosity was 14767 cps in data set [2] (composition with Resorcinol 0.5%); 12115 cps in data set [2] (composition with Resorcinol 1%); 13812 cps in data set [2] (composition with Resorcinol 2%); 12047 cps in data set [2] (composition with Resorcinol 5%); 10308 cps in data set [2] (composition with Resorcinol 8%).
